One test has as its system S. epidermidis. The test can be described thus: MIC, broth microdilution (CLSI). The class given is cell-based, Staphylococcus epidermidis. Conditions: for MIC: read-out: minimum inhibitory concentration. As for the experimental part: (§1) S. aureus, S. epidermidis, E. faecalis, and E. faecium strains were routinely cultivated on tryptic soy agar (TSA) and grown for 18 h at 37 °C. S. aureus single colonies were subsequently transferred into 2 mL of tryptic soy broth (TSB) and grown for a further 18 h at 37 °C while being shaken at 180 rpm. S. pyogenes, S. agalactiae, and S. dysgalactiae strains were routinely cultured on TSA supplemented with 5% sheep blood and grown for 18 h at 37 °C with 5% CO2. E. coli was grown in LB broth at 37 °C. For LtaS-deficient strains, TSB was supplemented with 0.5 M NaCl to provide an osmotically balanced environment and instead grown at 30 °C. For strains harboring the pRMC2 tetracycline inducible vector,[61] the growth medium was supplemented with 10 μg/mL chloramphenicol and […] anhydrotetracycline hydrochloride (Sigma). Phenylalanine-arginine β-naphthylamide (PAβN) (Sigma) was dissolved in sterile water.
(§2) B. subtilis, staphylococcal, and enterococcal strains were grown in Mueller Hinton broth (MHB), while streptococcal strains were grown in MHB supplemented with 5% laked horse blood. All strains were grown for 18 h at 37 °C. The overnight cultures were subsequently subcultured 1:200 and grown to the exponential phase (OD600nm = 0.5–0.6) in fresh broth. 1771 and its derivatives 9–14 were reconstituted in DMSO and further diluted by performing a 1:2 serial dilution ranging between 256 and 0.125 μg/mL in a 96-well microtiter plate. One hundred microliters of 0.5 McFarland standardized inoculum (approximately equal to 5 × 10^5 cfu) were then dispensed into each well in the 96-well microtiter plate. The plate was incubated for 18 h at 37 °C.
(Broth dilution looks for growth in wells or tubes with falling amounts of substance.)

In test [1] the test system is S. aureus wild type, clpX, ltaS, tarO mutants and ltaS overexpression strains. The test can be described thus: MIC against LtaS deletion and overexpression strains. It counts as cell-based, Staphylococcus aureus. As for the experimental part: as §1, §2
For overexpression studies, full-length ltaS was amplified by PCR using MRSA strian LAC genomic DNA, primer pair LtaS-FW: 5′-[…]-3′ and LtaS-RV: 5′-[…]-3′, and Phusion High-Fidelity DNA Polymerase (Thermo Fisher). The resulting PCR product was cloned into the tetracycline inducible plasmid pRMC2 using SacI and KpnI restriction sites and T4 ligase (NEB). The cloned vector was subsequently transformed into RN4220 followed by LAC through electroporation.

Test [2] concerns MRSA strain LAC. The test can be described thus: Time-kill kinetic analysis. It counts as cell-based, Staphylococcus aureus. Conditions: for effect on growth of LAC: 1× MIC, 24 h, inoculum 5 × 10^5 cfu. The procedure: Overnight cultures of MRSA strain LAC were subcultured 1:200 and grown to the exponential phase in fresh MHB. These cultures were subsequently diluted to give 500 μL of MHB containing 5 × 10^5 cfu. […] These suspensions were incubated for 24 h at 37 °C, with 50 μL of the suspension serially diluted 1:10 in 450 μL of phosphate buffered saline (PBS) and plated out on TSA at times 0, 1, 2, 4, 6, and 24 h for enumeration.

In test [3] the test system is MRSA strain LAC. The test can be described thus: Minimum bactericidal concentration. The class given is cell-based, Staphylococcus aureus. The settings on record: for classification bactericidal/bacteriostatic: time kill and MBC. As for the experimental part: For an antibiotic with an MBC ≤ 4×, the MIC was considered to be bactericidal, whereas with an MBC > 4×, the MIC was considered to be bacteriostatic.[24] […] Percentage survival was calculated according to the starting inoculum of 5 × 10^5 cfu at time 0 h.

Test [4] has as its system Pseudomonas aeruginosa strain PAO1. The test can be described thus: Growth inhibition in combination with PAβN. The class given is cell-based. The settings on record: 32 μg/mL compound with 100 μg/mL PAβN. The procedure:
Phenylalanine-arginine β-naphthylamide (PAβN) is a well-studied efflux pump inhibitor, which can also permeabilize the outer membrane of Gram-negative organisms.[40] […] Without the addition of PAβN (0 μg/mL), neither 1771 nor 13 had any growth inhibitory activity at concentrations up to 64 μg/mL. With the addition of 25 μg/mL of PAβN, the E. coli strain K12 could still grow in the presence of 64 μg/mL of 1771 or 13; however, the growth rate was severely impacted in a dose-dependent manner. […] To further evaluate the Gram-negative coverage of 1771 and 13, we also tested 1771 or 13 in combination with PAβN against Pseudomonas aeruginosa strain PAO1, Klebsiella pneumoniae strain 699 (clinical isolate), and Acinetobacter baumannii strain DF1000 (clinical isolate) (Figure S6a–c).
Figure S6. Permeabilization of the outer membrane renders Gram-negative bacteria susceptible to 1771 and compound 13. Bacterial growth curves of A) Klebsiella pneumoniae, B) Acinetobacter baumannii and C) Pseudomonas aeruginosa against 1771 and 13 (0 – 64 µg/ml) in combination with 0, 25, 50, 100 µg/ml of PAβN. The bacterial growth (OD 600nm) was […]
(1 picture or pasted object on this page, not shown here)

The mark [5] stands for this setting: Staphylococcus epidermidis, strain 305.
Setting [6] is: Staphylococcus epidermidis, strain 311.
The mark [7] stands for this setting: Staphylococcus epidermidis, strain 319.
Setting [8] is: Staphylococcus epidermidis, strain 322.
[9] abbreviates: Staphylococcus epidermidis, strain 771.
Where [10] appears, read: Staphylococcus epidermidis, strain 780.
Where [11] appears, read: Staphylococcus epidermidis, strain RP62A.
Setting [12] is: Staphylococcus aureus, 8325-4 (wild type), clpX set.
Where [13] appears, read: Staphylococcus aureus, NEWMAN, Newman ΔtarO.
Where [14] appears, read: Staphylococcus aureus, NEWMAN, Newman ΔtarO pRMC2 (empty vector).
The mark [15] stands for this setting: Staphylococcus aureus, NEWMAN, Newman ΔtarO pltaS (ltaS overexpression).
The mark [16] stands for this setting: Staphylococcus aureus, SA564 (wild type).
Where [17] appears, read: Staphylococcus aureus, SA564 clpX knockout mutant.

Usually MIC90 stands for an inhibitory concentration at the 90% level, which refers to growth in some studies and to a panel of isolates in others. Read a low MIC90 as greater potency.

Converted amounts (≈) assume the structure as drawn. Like-named read-outs stand apart in the source and are kept apart here.

As to `O=C(COC(=O)Cc1coc2ccc3ccccc3c12)Nc1nnc(-c2ccccc2)o1` [Compound 1771, 2-Oxo-2-((5-phenyl-1,3,4-oxadiazol-2-yl)amino)ethyl 2-(Naphtho[2,1-b]furan-1-yl)acetate, reference compound], the MIC with S. epidermidis (setting [5]) was 8 to 16 µg/mL (≈ 18.7 to 37.4 µM); with S. epidermidis (setting [6]), 8 to 16 µg/mL (≈ 18.7 to 37.4 µM); in the test with S. epidermidis (setting [7]) it was 8 to 16 µg/mL (≈ 18.7 to 37.4 µM); with S. epidermidis (setting [8]), 16 µg/mL (≈ 37.4 µM); in the test with S. epidermidis (setting [9]), 8 to 16 µg/mL (≈ 18.7 to 37.4 µM); in the test on S. epidermidis (setting [10]) it was 8 to 16 µg/mL (≈ 18.7 to 37.4 µM). In addition, the MIC with S. epidermidis (setting [11]) was 8 to 16 µg/mL (≈ 18.7 to 37.4 µM); in test [1] (setting [12]), 16 µg/mL (≈ 37.4 µM); in test [1] (Staphylococcus aureus, JE2 (wild type)), 16 µg/mL (≈ 37.4 µM); in test [1] (Staphylococcus aureus, JE2 clpXI265E and ltaS339STOP mutant) it was 16 µg/mL (≈ 37.4 µM); in test [1] (Staphylococcus aureus, NEWMAN), 16 µg/mL (≈ 37.4 µM); in test [1] (setting [13]), 16 µg/mL (≈ 37.4 µM). The MIC in test [1] (setting [14]) is 16 µg/mL (≈ 37.4 µM); in test [1] (setting [15]) it was 16 µg/mL (≈ 37.4 µM); in test [1] (setting [16]), 16 µg/mL (≈ 37.4 µM); in test [1] (Staphylococcus aureus, SA564clpX knockout and ltaSH476Q mutant), 16 µg/mL (≈ 37.4 µM); in test [1] (setting [17]), 16 µg/mL (≈ 37.4 µM). In addition, the “MIC range against S. epidermidis strains” value in the test on S. epidermidis (collection of S. epidermidis strains) lay in the range of 8 to 16 µg/mL. For the same molecule, the “effect on growth of LAC” value with MRSA strain LAC [2] is “completely inhibited the growth”. Besides, the killing effect result in the test with MRSA strain LAC [2] (4× MIC, LAC) was “roughly 65%”. Also, the classification bactericidal/bacteriostatic result in the test on MRSA strain LAC [3] is given as “bacteriostatic”.
In turn, `O=C(COC(=O)Cc1coc2ccc3ccccc3c12)Nc1nnc(-c2ccc(S(F)(F)(F)(F)F)cc2)o1` [Compound 13, 2-Oxo-2-((5-(4-(pentafluoro-l6-sulfaneyl)phenyl)-1,3,4-oxadiazol-2-yl)amino)ethyl 2-(Naphtho[2,1-b]furan-1-yl)acetate] had an MIC90 in the test with S. epidermidis (Staphylococcus epidermidis) of 1 µg/mL (≈ 1.81 µM). Further, the MIC in the test on S. epidermidis (setting [5]) is 0.5 to 1 µg/mL (≈ 0.903 to 1.81 µM); with S. epidermidis (setting [6]), 0.5 µg/mL (≈ 0.903 µM); with S. epidermidis (setting [7]), 1 µg/mL (≈ 1.81 µM); in the test on S. epidermidis (setting [8]), 0.5 µg/mL (≈ 0.903 µM); with S. epidermidis (setting [9]), 0.5 µg/mL (≈ 0.903 µM); in the test on S. epidermidis (setting [10]), 0.5 to 1 µg/mL (≈ 0.903 to 1.81 µM). The MIC in the test on S. epidermidis (setting [11]) is 0.5 µg/mL (≈ 0.903 µM); in test [1] (8325-4 (wild type), clpX set), 0.5 to 1 µg/mL; in test [1] (SA564clpX knockout and ltaSH476Q mutant) it was 0.25 µg/mL (≈ 0.452 µM); in test [1] (setting [12]), 0.5 to 1 µg/mL (≈ 0.903 to 1.81 µM); in test [1] (Staphylococcus aureus, 8325-4 clpX knockout and ltaS382STOP mutant), 0.25 µg/mL (≈ 0.452 µM); in test [1] (Staphylococcus aureus, 8325-4 clpX knockout mutant), 0.25 µg/mL (≈ 0.452 µM). Further, the MIC turned out to be 0.25 µg/mL (≈ 0.452 µM) in test [1] (Staphylococcus aureus, JE2 clpXI265E mutant); 1 µg/mL (≈ 1.81 µM) in test [1] (Staphylococcus aureus, NEWMAN); 1 µg/mL (≈ 1.81 µM) in test [1] (setting [13]); 1 µg/mL (≈ 1.81 µM) in test [1] (setting [14]); 1 µg/mL (≈ 1.81 µM) in test [1] (setting [15]); 0.25 µg/mL (≈ 0.452 µM) in test [1] (setting [16]). For the same molecule, the MIC in test [1] (setting [17]) was 0.25 µg/mL (≈ 0.452 µM). For the same molecule, the “effect on growth of LAC” value in the test on MRSA strain LAC [2] is “completely inhibited the growth”. Also, the “starting inoculum surviving the exposure” value in the test on MRSA strain LAC [2] (4× MIC, LAC) stood at 1%. Also, the “minimal bactericidal concentration (MBC)” value in the test on MRSA strain LAC [3] (8 to 128 μg/mL (up to 256× MIC)) is listed as “could not be elucidated”. The classification bactericidal/bacteriostatic result with MRSA strain LAC [3] is “bacteriostatic”. In addition, in test [4], the “growth of PAO1” value is given as “severely inhibited”.

The values are drawn from article PMC10644342, “Improved Antibacterial Activity of 1,3,4-Oxadiazole-Based Compounds That Restrict Staphylococcus aureus Growth Independent of LtaS Function” (ACS Infectious Diseases, 2023).
